Source: patent US20240148821A1, “PHARMACEUTICAL USE OF CYCLIC PEPTIDE COMPOUND” (CHUGAI SEIYAKU KABUSHIKI KAISHA, priority 2021, published 2024)
Numbered stars: 1 amine (or outer) side, 2 acyl side, 3 side chain; on linkers, the order of the positions; unused ones are H or OH. Bridge positions count the residues as written; N and C are the ends. Square brackets hold non-standard residues; d marks the D form. Peptide text beside a SMILES is read from it. * marks the point of attachment. hPhe(3-Cl-4-CF3) = N[C@@H](CCc1ccc(C(F)(F)F)c(Cl)c1)C(=O)O; dβ3h(hPhe) = O=C(C[C@@H](CCc1ccccc1)N[*:1])[*:2]; NEtPhe(2-Cl) = CCN[C@@H](Cc1ccccc1Cl)C(=O)O; NMePhe(4-Me) = CN[C@@H](Cc1ccc(C)cc1)C(=O)O; X83 = Cc1ccc(CC[C@H](N[*:1])C(=O)[*:2])cc1; NMedβ3hAla = C[C@H](CC(=O)[*:2])N(C)[*:1]; NMeCha = CN[C@@H](CC1CCCCC1)C(=O)O; NMeGly(cPr) = CN[C@H](C(=O)O)C1CC1; NMeChg = CN[C@H](C(=O)O)C1CCCCC1; NMeI = CC[C@H](C)[C@H](NC)C(=O)O; X138 = NCCOCCN(CC(=O)[*:2])[*:1]; NMeD = CN[C@@H](CC(=O)O)C(=O)O; NMeL = CN[C@@H](CC(C)C)C(=O)O; NMeV = CN[C@H](C(=O)O)C(C)C; d(β3hA) = C[C@@H](N)CC(=O)O; NMeA = CN[C@@H](C)C(=O)O; NMeAib = CNC(C)(C)C(=O)O; Piperidide = C1CCN(*)CC1; dNMeA = CN[C@H](C)C(=O)O; Ac5c = NC1(C(=O)O)CCCC1; Aze = O=C(O)[C@@H]1CCN1; Ac4c = NC1(C(=O)O)CCC1; Sar = CNCC(=O)O

target: protein-protein interaction between Kras and SOS1 (biotin-tagged human Kras loaded with GDP, His-tagged human SOS1) (Homo sapiens (Human), UniProt P01116, G12D); assay: Protein-protein interaction inhibition between Kras and SOS1 (KrasG12D-SOS PPI) using AlphaScreen; assay type: biochemical; details: AlphaScreen; biotin-tagged human Kras loaded with GDP, His-tagged human SOS1; read-out: KRAS G12D-SOS PPI IC50;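 note: kras produced in E. coli, Ni-coupled donor beads and streptavidin acceptor beads, excitation 680 nm with emission detected at 520–620 nm via singlet oxygen transfer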

First: CC[C@H](C)[C@@H]1NC(=O)[C@H](C)N(C)C(=O)C[C@@H](C(=O)N2CCCCC2)N(C)C(=O)[C@H](C(C)C)N(C)C(=O)C2(CCCC2)NC(=O)[C@@H]2CCCN2C(=O)[C@H](CCc2ccc(C)cc2)NC(=O)CN(C)C(=O)[C@H](CC2CCCCC2)N(C)C(=O)[C@@H]2CCN2C(=O)[C@H](C)N(C)C1=O [Compound 976] ([NMeA]I[NMeA][Aze][NMeCha][Sar][X83]P[Ac5c][NMeV][NMeD]-Piperidide; lactam N-11)
Second: CC[C@H](C)[C@@H]1NC(=O)[C@H](CC(C)C)N(C)C(=O)C[C@@H](C(=O)N2CCCCC2)N(C)C(=O)[C@H](C(C)C)N(C)C(=O)C2(CCC2)NC(=O)[C@@H]2CCCN2C(=O)[C@H](CCc2ccc(C(F)(F)F)c(Cl)c2)NC(=O)CN(C)C(=O)[C@H](CC2CCCCC2)N(C)C(=O)[C@@H]2CCN2C(=O)[C@H](C)N(C)C1=O [Compound 1672] ([NMeL]I[NMeA][Aze][NMeCha][Sar][hPhe(3-Cl-4-CF3)]P[Ac4c][NMeV][NMeD]-Piperidide; lactam N-11)
The IC50 of the first is 42-fold higher: 180 nM for the first, 4.3 nM for the second. The second is the more potent here.

Compared with `CC[C@H](C)[C@@H]1NC(=O)[C@H](CC(C)C)N(C)C(=O)C[C@@H](C)NC(=O)[C@H](C(C)C)N(C)C(=O)C2(CCCC2)NC(=O)[C@@H]2CCCN2C(=O)[C@H](CCc2ccc(C(F)(F)F)c(Cl)c2)NC(=O)CN(C)C(=O)[C@H](CC2CCCCC2)N(C)C(=O)[C@@H]2CCN2C(=O)[C@H](C2CC2)N(C)C1=O` [Compound 1586] (cyclo([Ac5c][NMeV][d(β3hA)][NMeL]I[NMeGly(cPr)][Aze][NMeCha][Sar][hPhe(3-Cl-4-CF3)]P)), `CC[C@H](C)[C@@H]1NC(=O)[C@H](CC(C)C)N(C)C(=O)C[C@@H](C)NC(=O)[C@H](C(C)C)N(C)C(=O)C2(CCCC2)NC(=O)[C@@H]2CCCN2C(=O)[C@H](CCc2ccc(C(F)(F)F)c(Cl)c2)NC(=O)CN(C)C(=O)[C@H](CC2CCCCC2)N(C)C(=O)[C@@H]2CCN2C(=O)CN(C)C1=O` [Compound 663] (cyclo([Ac5c][NMeV][d(β3hA)][NMeL]I[Sar][Aze][NMeCha][Sar][hPhe(3-Cl-4-CF3)]P)) is 3.7-fold lower in IC50: 59 nM for the first, 16 nM for the second.

First: CC[C@H](C)[C@@H]1NC(=O)[C@H](CC(C)C)N(C)C(=O)C[C@@H](C)N(C)C(=O)[C@H](CC(C)C)NC(=O)C(C)(C)N(C)C(=O)[C@H](CC(C)C)NC(=O)[C@H](CCc2ccc(C(F)(F)F)c(Cl)c2)NC(=O)[C@@H](C)N(C)C(=O)[C@H](Cc2ccc(C)cc2)N(C)C(=O)CN(C)C(=O)CN(C)C1=O [Compound 1384] (cyclo(I[Sar][Sar][NMePhe(4-Me)][dNMeA][hPhe(3-Cl-4-CF3)]L[NMeAib]L[NMedβ3hAla][NMeL]))
Second: CC[C@H](C)[C@@H]1NC(=O)[C@H](CC(C)C)N(C)C(=O)C[C@@H](CCc2ccccc2)NC(=O)[C@H]([C@@H](C)CC)N(C)C(=O)C2(CCCC2)NC(=O)[C@@H]2CCCN2C(=O)[C@H](CCc2ccc(C(F)(F)F)c(Cl)c2)NC(=O)CN(C)C(=O)[C@H](Cc2ccc(C)cc2)N(C)C(=O)[C@@H]2CCN2C(=O)[C@H](C)N(C)C1=O [Compound 1874] (cyclo([Ac5c][NMeI][dβ3h(hPhe)][NMeL]I[NMeA][Aze][NMePhe(4-Me)][Sar][hPhe(3-Cl-4-CF3)]P))
The IC50 of the first is 1.7-fold lower: 230 nM for the first, 400 nM for the second. The first is the more potent here.

Compared with `CC[C@H](C)[C@@H]1NC(=O)[C@H](C)N(C)C(=O)C[C@@H](C(=O)N2CCCCC2)N(C)C(=O)[C@H](C(C)C)N(C)C(=O)C2(CCCC2)NC(=O)[C@H](Cc2ccccc2Cl)N(CC)C(=O)[C@H](CCc2ccc(C(F)(F)F)c(Cl)c2)NC(=O)CN(C)C(=O)[C@H](Cc2ccc(C)cc2)N(C)C(=O)CN(C)C(=O)CN(C)C1=O` [Compound 2166] ([NMeA]I[Sar][Sar][NMePhe(4-Me)][Sar][hPhe(3-Cl-4-CF3)][NEtPhe(2-Cl)][Ac5c][NMeV][NMeD]-Piperidide; lactam N-11), `CC[C@H](C)[C@@H]1NC(=O)[C@H](CC(C)C)N(C)C(=O)C[C@@H](C(=O)N2CCCCC2)N(C)C(=O)[C@H](C2CCCCC2)N(C)C(=O)C2(CCCC2)NC(=O)CN(CCOCCN)C(=O)[C@H](CCc2ccc(C(F)(F)F)c(Cl)c2)NC(=O)CN(C)C(=O)[C@H](CC2CCCCC2)N(C)C(=O)CN(C)C(=O)CN(C)C1=O` [Compound 2185, (11S,17S,26S,29S,33S,36S)-9-[2-(2-aminoethoxy)ethyl]-11-[2-[3-chloro-4-(trifluoromethyl)phenyl]ethyl]-36-cyclohexyl-17-(cyclohexylmethyl)-29-isobutyl-15,18,21,24,30,34,37-heptamethyl-26-[(1S)-1-methylpropyl]-33-(piperidine-1-carbonyl)-6,9,12,15,18,21,24,27,30,34,37-undecazaspiro[4.33]octatriacontane-7,10,13,16,19,22,25,28,31,35,38-undecone] ([NMeL]I[Sar][Sar][NMeCha][Sar][hPhe(3-Cl-4-CF3)][X138][Ac5c][NMeChg][NMeD]-Piperidide; lactam N-11) is 140-fold lower in IC50: 330 nM for the first, 2.4 nM for the second.

`CC[C@H](C)[C@@H]1NC(=O)[C@H](C)N(C)C(=O)C[C@@H](C)NC(=O)[C@H](C(C)C)N(C)C(=O)C2(CCCC2)NC(=O)[C@@H]2CCCN2C(=O)[C@H](CCc2ccc(C(F)(F)F)c(Cl)c2)NC(=O)[C@@H](C)N(C)C(=O)[C@H](CC2CCCCC2)N(C)C(=O)[C@@H]2CCN2C(=O)[C@H](CC(C)C)N(C)C1=O` [Compound 2018] (cyclo([Ac5c][NMeV][d(β3hA)][NMeA]I[NMeL][Aze][NMeCha][dNMeA][hPhe(3-Cl-4-CF3)]P)) was tested, and the IC50 was 320 nM.
